# According to patent US20170121683A1, “ARYL HYDROCARBON RECEPTOR DISRUPTION AND ENHANCEMENT” (priority 2015, published 2017):
# Key:
# [1] = test system: hESCs; assay: Viability of hESC-derived cells, Sytox Blue Live/Dead Stain; type: cell-based, human; settings: 1 μM SR-1 or 10 nM TCDD
# Description: FIG. 8A. Non-adherent hematopoietic progenitor cells derived from hESCs were harvested at Day 6+3, Day 6+5, Day 6+7, and Day 6+9 time points and probed for gene expression by quantitative real-time PCR (qPCR). For each gene, Ct values were normalized to GAPDH at each time point and data is presented as relative fold-change as compared to undifferentiated hESCs. […] FIG. 8B Undifferentiated hESCs were cultured in the presence of 1 μM SR-1, 10 nM TCDD, or DMSO vehicle control for 96 hours and probed for gene expression by qPCR. For each gene, Ct values were normalized to GAPDH at each time point and data is presented as relative fold-change as compared to DMSO treated hESCs. n=3, error bars represent SEM, *p<0.05 assessed by two-way ANOVA+Tukey-Kramer multiple comparisons post-hoc test. FIG. 8C. Both adherent and non-adherent cell fractions treated with either DMSO, SR-1, or TCDD were harvested at Day 6+3, Day 6+6, and Day 6+9 and probed for viability with Sytox Blue Live/Dead Stain. […]
# Harvested cells were incubated with PE-Cy7 CD34 (BD Biosciences, San Jose, Calif.) in conjunction with APC CD31, APC CD41a, APC CD43, or APC CD45 for 30 minutes at 4° C. in FACS buffer (DPBS containing 2% fetal bovine serum and 0.1% sodium azide). […] Cells were analyzed using an LSRII flow cytometer (BD Biosciences) and data were analyzed using FlowJo software (TreeStart, Ashland, Oreg.).
# [2] = test system: H9 hESCs; assay: Hemato-endothelial differentiation of H9 hESCs as spin-EBs, flow cytometry (Example 1); type: cell-based, human
# Description: H9 human embryonic stem cells (H9 hESCs; University of Wisconsin, Madison, Wis.) were adapted to passage as single cells using TrypLE (Invitrogen, Carlsbad, Calif.) as previously described (Ng et al. Nat. Protoc. 3, 768-76 (2008)). H9 hESCs were maintained on irradiated mouse embryonic fibroblasts in ES cell growth medium including Dulbecco's modified Eagle's medium (DMEM)/Ham's F-12 medium (F12) (Invitrogen) supplemented with 15% Knockout Serum Replacer (Invitrogen), 1 mM L-glutamine (Invitrogen), 0.1 mM β-mercaptoethanol (Sigma Aldrich, St. Louis, Mo.), 1% minimum essential medium nonessential amino acids (Invitrogen), 4 ng/mL basic fibroblast growth factor (R&D Systems Inc., Minneapolis, Minn.), and 1% penicillin-streptomycin (Invitrogen) incubated at 37° C. in a humidified atmosphere containing 5% CO2. Single-cell adapted hESCs were subjected to hemato-endothelial differentiation as spin embryoid bodies (“spin-EBs”), also previously described (Ng et al. Nat. Protoc. 3, 768-76 (2008); Knorr et al. Stem Cells Dev. 22, 1861-9 (2013); Ferrell et al., Stem Cells 33(4), 1130-41 (2015)). In brief, TrypLE-adapted hESCs were harvested are resuspended in bovine serum albumin polyvinyl alcohol essential lipids (BPEL) media (Ferrell et al. Stem Cells 33(4):1130-41 (2015)) supplemented with 20 ng/mL bone morphogenic protein-4 (R&D Systems), 20 ng/mL vascular endothelial growth factor (R&D Systems), and 40 ng/mL stem cell factor (R&D Systems) (hemato-endothelial induction media or Stage I mesodermal induction media). Cells were plated in a low-attachment 96-well plate (Thermo Scientific, Waltham, Mass.) at 3,000 cells per well and centrifuged at 1500 rpm for 5 minutes to create three-dimensionalized embryoid body aggregates. Following 6 days of incubation, EBs were transferred with a multichannel micropipette to 0.1% gelatinized 24-well plates (8 EBs/well) with BEL media (BPEL media minus polyvinyl alcohol) supplemented with 40 ng/mL vascular endothelial growth factor, 40 ng/mL stem cell factor, 30 ng/mL Interleukin-3 (Peprotech, Rocky Hill, N.J.), 30 ng/mL Interleukin-6 (Peprotech), and 30 ng/mL thrombopoietin (Peprotech) ([…] or Stage II media) to induce hemato-endothelial-specific differentiation. Depending on the treatment group, Stage II media was also supplemented with DMSO, 1 μM StemReginin-1 (SR-1) (Cellagen Technology, San Diego, Calif.) in DMSO or 10 nM 2,3,7,8-tetrachlorodibenzo-p-dioxin (TCDD) (Sigma Aldrich) in DMSO. EBs were cultured until the indicated time points and one-half media changes with fresh Stage II media and drugs were performed every three days. For EB harvesting, the media containing the non-adherent differentiated hematopoietic cells was set aside while the adherent cells were treated with 0.05% trypsin (Invitrogen) containing 2% chicken serum (Sigma Aldrich) for 8-10 minutes in a 37° C. water bath. Both non-adherent and adherent fractions were combined for subsequent analyses.
# Harvested cells were incubated with PE-Cy7 CD34 (BD Biosciences, San Jose, Calif.) in conjunction with APC CD31, APC CD41a, APC CD43, or APC CD45 for 30 minutes at 4° C. in FACS buffer (DPBS containing 2% fetal bovine serum and 0.1% sodium azide). Dead cells were excluded using Sytox Blue dye (Invitrogen) prior to analysis. Cells were analyzed using an LSRII flow cytometer (BD Biosciences) and data were analyzed using FlowJo software (TreeStart, Ashland, Oreg.).
# [3] = test system: non-human primate iPSCs; settings: Gori et al. Blood 2012; cited from earlier work
# [4] = test system: H9 hESC-derived non-adherent hematopoietic progenitor cells; assay: Hematopoietic colony forming unit (CFU) assay (Example 1); type: cell-based, human
# Description: FIG. 5A. H9 hESCs were differentiated as spin EB exposed to Stage I mesodermal induction media for 6 days and transferred to hemato-endothelial induction media with either DMSO, 1 μM SR-1, or 10 nM TCDD treatment for an additional 6 days. On day 12 of total differentiation, 50,000 non-adherent cells were obtained in each treatment group and seeded in Methocult H4436. Following 14 days of growth, colony-forming units (CFUs) were quantified and scored based on morphology. Data are represented as number of CFUs per 5×10^4 cells. FIG. 5B. Distribution of CFU morphology for DMSO-, SR-1-, and TCDD-treated H9 hESCs. *p<0.05 as compared to DMSO-treated H9 hESC (Student's t-test) and represent an average of three biological replicates with error bars representing SEM. CFU-GEMM: Colony-Forming Unit Granulocyte/Erythrocyte/Macrophage/Megakaryocyte; CFU-M: Colony-Forming Unit Macrophage; CFU-GM: Colony-Forming Unit-Granulocyte/Macrophage; CFU-E: Colony-Forming Unit Erythroid; BFU-E: Burst-Forming Unit-Erythroid.
# Non-adherent, differentiated hematopoietic progenitor cells were harvested following 6 days growth as spin-EBs in Stage I conditions, followed by an additional 6 days growth in Stage II conditions. […] Plates were incubated in a 37° C. in a humidified atmosphere containing 5% CO2 for 14 days and were subsequently scored.
Structure (SMILES),cytotoxic effects on hESCs [1],"CD34+CD45+ progenitor cells ([2]; Day 15, 10 nM TCDD, n=3)","CD34−CD43+ differentiated hematopoietic cells ([2]; Day 15, 10 nM TCDD, n=3)","CD34−CD45+ differentiated hematopoietic cells ([2]; Day 15, 10 nM TCDD, n=3)",kinetics or quantity of CD34+ or CD34+CD31+ cells [3],phenotypic CD34+CD45+ cells [3],total number of colony-forming units (CFUs) [3],"increase in total number of colonies relative to DMSO-treated control cells ([4]; non-adherent cells harvested at Day 12, 1 μM SR-1) [fold]","proportion of CFU-M and CFU-GM ([4]; non-adherent cells harvested at Day 12, 1 μM SR-1, relative to DMSO)","CD34+CD31+ hemato-endothelial cells ([2]; Day 9, 1 μM SR-1, n=3)","expansion of CD34+CD45+ hematopoietic progenitor cells relative to DMSO-treated controls ([2]; Day 12, 1 μM SR-1)","CD34+CD45+ hematopoietic progenitor cells ([2]; Day 12, 1 μM SR-1, n=3)"
"Clc1cc2c(cc1Cl)Oc1cc(Cl)c(Cl)cc1O2 [TCDD, 2,3,7,8-tetrachlorodibenzo-p-dioxin]",no significant cytotoxic effects,3.99%±0.80,84.5%±2.78,81.75%±1.75,,,,,,,,
"CC(C)n1cnc2c(NCCc3ccc(O)cc3)nc(-c3csc4ccccc34)nc21 [SR-1, StemReginin-1]",no significant cytotoxic effects,,,,no differences,increase,did not enhance,4,increased proportion,17.63%±1.25,approximately two-fold expansion,16.35%±4.05
